Assay results as given in US12590950B2, “Methods for predicting ER-mediated DNA damage” (UNIVERSITY OF MASSACHUSETTS, priority 2019, dated 2026).
Read-outs that look alike come from different tables or passages of the source.

How the values were obtained:
[1] = Acute oral exposure of ovariectomized mice: uterine weight; assay type: in vivo, mouse; conditions: 4 days, BP3 3000, PP 10000 μg/kg/d
From the text: Animal Treatment: Forty mature female mice (8 weeks old) BALB/c mice were purchased from Jackson Laboratory and housed in temperature-controlled facilities with a 12-hour alternating day/night light cycle and fed LabChow 5058 ad libitum. All procedures were in accordance with the national guidelines for the care and use of animals and approved by the University of Massachusetts Amherst's Institutional Animal Care and Use Committee.
The mice were ovariectomized before treatment. Briefly, each mouse was anaesthetized with a mix of isofluorance and oxygen. The flanks were shaved, sterilized with betadine and cleaned with alcohol. An incision was made to the skin on the right flank. The underlying muscle layer was nicked to reveal a small hole through which ovary was pulled out by grasping the periovarian fat. A Serrifin clamp was used to hold the ovary. After making sure the blood vessels were constricted to prevent […], the ovary was cut from the uterine horn. The periovarian fat was restored into the peritoneum. The peritoneum was closed with one or two stiches and the skin was closed with 9 mm wound clips. The procedure was repeated on the contralateral side. The mouse was monitored for a week post-procedure and wound clips were removed after 10 days. […]

T47D cells = assay: S9.6 immunostaining (R-loops) in T47D cells; assay type: cell-based, human; conditions: 5 μM, vs vehicle-treated control
Method: Immunostaining: Cells were grown in clearing media for 48 h and plated on 20 mm coverslip in 12 well plates with a density of 2×10^5 cells/well. After 24 h of growth, cells were treated with 10 nM E2, 1 or 5 μM BP3, and 1 or 5 μM PP with or without 1 μM fulvestrant. γH2AX/ERα: Cells were fixed in ice-cold methanol (100%) for 10 mins and quenched with 0.1 M Glycine for 15 mins. Cells were washed with 1×PBS, blocked in 2% BSA/PBS with 0.1% Triton-X 100 for 1 hr at room temperature (RT), incubated overnight with γH2AX antibody (Cell Signaling #9718 S) or ERα antibody (Santa Cruz Biotechnology #sc-8002) at 4° C. and 1 hour with secondary antibody. S9.6: Cells were fixed in ice-cold 100% methanol for 10 min at −20° C., permeabilized in 100% acetone for 1 min at RT, blocked for 30 min in saline sodium citrate pH 7 (SSC, 4×), 3% BSA, 0.1% Triton-X and incubated with S9.6 (Kerafast #ENH001) 2 hr at RT followed by 1 h with secondary antibody. If indicated, slides were treated with RNase H (NEB #M0297L) for 4 hr at 37° C. prior to incubation with primary antibody. Stained cells were mounted with Vectashield mounting medium containing DAPI (Vector Laboratories #H-1200). […] Analysis of γH2AX and S9.6 intensity per nucleus or foci per nucleus was calculated using Nikon analysis software, where DAPI was used as a mask for the nucleus.

estrogen receptor = molecular target: T1, estrogen receptor (Homo sapiens, UniProt P03372); assay: Luciferase reporter assay (ERE-luciferase transactivation) in T47D-KBluc cells; assay type: cell-based; conditions: for LOEC (lowest-observed-effect-concentration) for transcription in luciferase assay: T47D-KBluc, 24 h treatment
T1 sequence (P03372 1-595): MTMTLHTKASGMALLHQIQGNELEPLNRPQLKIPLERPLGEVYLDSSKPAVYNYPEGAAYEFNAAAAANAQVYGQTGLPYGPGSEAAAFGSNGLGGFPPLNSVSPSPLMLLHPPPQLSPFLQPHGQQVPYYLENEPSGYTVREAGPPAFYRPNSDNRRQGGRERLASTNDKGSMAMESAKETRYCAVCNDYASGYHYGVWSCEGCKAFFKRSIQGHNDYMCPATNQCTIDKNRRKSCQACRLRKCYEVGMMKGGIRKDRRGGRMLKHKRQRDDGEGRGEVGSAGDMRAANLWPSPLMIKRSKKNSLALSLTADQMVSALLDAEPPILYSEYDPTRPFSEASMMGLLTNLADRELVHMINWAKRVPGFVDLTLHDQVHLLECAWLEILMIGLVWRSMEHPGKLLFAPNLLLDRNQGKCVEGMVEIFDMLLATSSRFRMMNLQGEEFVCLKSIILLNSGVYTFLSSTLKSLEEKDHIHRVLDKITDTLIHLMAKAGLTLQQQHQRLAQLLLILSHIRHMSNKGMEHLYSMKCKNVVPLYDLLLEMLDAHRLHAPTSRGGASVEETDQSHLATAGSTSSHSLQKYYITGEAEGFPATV

AREG and PGR = assay: RT-qPCR of endogenous ER target genes AREG and PGR in T47D and MCF-7 cell lines; assay type: cell-based, human; conditions: for induction of endogenous ER target genes AREG and PGR: 1 μM, T47D and MCF-7; for transcription by endogenous gene expression: 5 μM BP3, 1 μM PP
ER [2] = molecular target: T2, ER (Homo sapiens, UniProt P03372); conditions: 10 μM; cited from earlier work
T2 sequence (P03372 1-595): T1 sequence (P03372 1-595)

76N-Tert-ESR1 cell line [3] = conditions: human, 5 µM
[4] = development and reproductive toxicity assays; cited from earlier work
[5] = system: normal human keratin cell lines; conditions: cited from earlier work
[6] = also printed as 200 μg/L; cited from earlier work
76N-Tert-ESR1 cell line [7] = assay: S9.6 immunostaining (R-loops) in 76N-Tert-ESR1 cells induced with doxycycline; conditions: 76N-Tert-ESR1 after induction of ERα with doxycycline, 5 μM
ER [8] = molecular target: T2, ER; set-up: host or cells: MCF-7; conditions: MCF-7, 1 μM; cited from earlier work

SMILES: CCCOC(=O)c1ccc(O)cc1 [PP, propyl parahydroxybenzoate]
- uterine weights compared to the control treatment [1]: not sufficient
- nuclear S9.6 foci (R-loops) (T47D cells): significantly higher
- LOEC (lowest-observed-effect-concentration) for transcription in luciferase assay (estrogen receptor): 0.5 µM
- concentration at which transcriptional response is observed (AREG and PGR): greater than 5 μM
- induction of endogenous ER target genes AREG and PGR (AREG and PGR): poor agonists
- transcription by endogenous gene expression (AREG and PGR): no significant increase in transcription
- induction of gene expression (ERE-CAT reporter) (ER [2]): 1.3 fold
- nuclear S9.6 foci (76N-Tert-ESR1 cell line [3]): increased number of nuclear S9.6 foci significantly over vehicle-treated control
- no-adverse-effect-level (NOAEL) dose [4]: 10000 µg/kg/day

SMILES: COc1ccc(C(=O)c2ccccc2)c(O)c1 [BP3, 2-Hydroxy-4-methoxybenzophenone]
- uterine weights compared to the control treatment [1]: not sufficient
- nuclear S9.6 foci (R-loops) (T47D cells): significantly higher
- LOEC (lowest-observed-effect-concentration) for transcription in luciferase assay (estrogen receptor): 5 µM
- Relative Transactivation Activity at 90%ile or 95%ile (% RTA vs E2) (estrogen receptor; at 95%ile urine concentration of non-pregnant women): 18.91 ± 6.62%
- Relative Transactivation Activity at 90%ile or 95%ile (% RTA vs E2) (estrogen receptor; at 95%ile urine concentration of pregnant women): 27.16±6.2%
- maximum relative transactivation activity (RTA) compared to 10 nM E2 (estrogen receptor; maximum): 37%
- concentration inducing γH2AX foci [5]: 10 µM
- concentration at which transcriptional response is observed (AREG and PGR): greater than 5 μM
- induction of endogenous ER target genes AREG and PGR (AREG and PGR): poor agonists
- transcription by endogenous gene expression (AREG and PGR): no significant increase in transcription
- serum level following exposure in women [6]: approximately 0.87 μM
- nuclear S9.6 foci (76N-Tert-ESR1 cell line [7]): increased number of nuclear S9.6 foci significantly over vehicle-treated control
- no-adverse-effect-level (NOAEL) dose [4]: 3000 µg/kg/day
- ER agonism in transactivation and proliferation assays (ER [8]): weak agonist
